In patent EP4345091A1, “BENZOIC ACID DERIVATIVES, METHODS AND USES THEREOF” (priority 2022, dated 2024):
Converted amounts (≈) assume the structure as drawn. Where two headings read alike, the source gives them in different places.

What was measured:
[1] = test system: human monocytic cell line THP-1 (ATCC56 TIB202); assay: Cytotoxicity assay in THP-1 cells; format: cell-based; conditions: toxicity/activity index: ratio LC50 (THP-1) / MIC (M. tuberculosis H37Rv)
From the text: (§1) Cytotoxicity results were obtained through lethal concentration for 50% of the cell population, LC50. Table 6. Results obtained from cytotoxicity assays for the esters, represented by LD50 in µg/mL and comparison with MIC values, in µg/mL with toxicity/activity (T/A) index.
(§2) The T/A index quantitatively is the ratio between the lethal concentration (LC50) given by the minimum inhibitory concentration (MIC).

[2] = Cytotoxicity assay in THP-1 cells; format: cell-based, human; conditions: human, THP-1 cells, read-out: LC50 (the source's name)
From the text: as §1, §2

[3] = test system: Mycobacterium smegmatis homogenate; assay: Stability in Mycobacterium smegmatis homogenate (enzymatic hydrolysis); conditions: Mycobacterium smegmatis homogenate, 37°C
[4] = Chemical stability in phosphate buffer pH 7.4
Method: Chemical hydrolysis was evaluated in phosphate buffer at physiological pH (7.4) to determine its influence in enzymatic studies.
1176 µL pH 7.4 phosphate buffer or pH 5.9 phosphate buffer, 18 µL ACN and 6 µL of a 10-1 M stock solution of the prodrug in ACN were mixed in a 2mL vial. The solution was incubated at 37 °C and 50 µL aliquots were removed, mixed with 450 µL of ACN: H2O 1:1. The solution was analysed by HPLC, the remaining substrate and the correspondent acid were both measured.
The eluant was a mixture of acetonitrile (60%/70%) and aqueous phosphate buffer with 5% of KH2PO4/H3PO4 0.025M (40%/30%). The flow rate was always 1 mL/1 min and wavelength was set at 230 nm. All quantifications were evaluated using calibration curves from stock solutions.
The initial substrate concentration was 5 x 10^-4 M in all stability assays. All incubations were carried out at pH 7.4 and 37 °C under agitation using the phosphate buffer described above as diluting agent. […] Acetonitrile (2%) was used in all studies to ensure adequate solubilization of the substrates.

[5] = Stability in human plasma (enzymatic hydrolysis)
Method: The studies of stability in human plasma were performed in human plasma diluted to 80% with phosphate buffer pH 7.4 of total concentration 0.05 M and ionic strength 0.15 M at 37°C. […] Study of enzymatic hydrolysis. […] Initial substrate concentration (ester) - 5×10^-4M with 2% ACN.
Pooled human plasma (960 µL), pH 7.4 phosphate buffered saline (216 µL), 18 µL ACN and 6 µL of a 10-1 M stock solution of the prodrug in ACN were mixed in a 2mL vial. The suspensions were incubated at 37 °C and 50 µL aliquots were removed, mixed with 450 µL of ACN: ZnSO4 1% 1:1 and centrifuged. The supernatant was removed and analysed by HPLC, the remaining substrate and the correspondent acid measured.
Two HPLC systems were used. The buffer and plasma stability studies were performed in an HPLC system with a photodiode detector L-3000 Photo Diode Array Detector, Merck-Hitachi L-6000 pump, Merck-Hitachi D-2500 integrator, and Merck RP-8 column. […] The eluant was a mixture of acetonitrile (60%/70%) and aqueous phosphate buffer with 5% of KH2PO4/H3PO4 0.025M (40%/30%). The flow rate was always 1 mL/1 min and wavelength was set at 230 nm. All quantifications were evaluated using calibration curves from stock solutions.
The initial substrate concentration was 5 x 10^-4 M in all stability assays. All incubations were carried out at pH 7.4 and 37 °C under agitation using the phosphate buffer described above as diluting agent. […] Acetonitrile (2%) was used in all studies to ensure adequate solubilization of the substrates. The benzoates were added from 10 to 1M acetonitrile stock solutions. After incubation, aliquots of 50 µL were taken into vials containing 450 µL of a 1:1 solution of 1% zinc sulfate and acetonitrile, mixed in a vortex and centrifuged for 10 min at 15,000 rpm. The supernatant was then injected into the HPLC and analysed for quantification of benzoic acid and remaining benzoate. All quantifications were performed using calibration curves.

[6] = test system: Mycobacterium tuberculosis H37Rv; assay: MIC and MBC by broth microdilution against M. tuberculosis H37Rv; format: cell-based, Mycobacterium tuberculosis H37Rv (ATCC 27294); conditions: Mycobacterium tuberculosis, H37RV
[7] = test system: Mycobacterium Bovis BCG infecting human macrophages THP-1; format: cell-based
[8] = THP-1 monocytic cells, lethal concentration for 50% of the cell population
[9] = M. tuberculosis H37Rv, Table 3, read-out: MBC
[10] = M. tuberculosis H37Rv, Tables 3, 6 and 7, read-out: MIC
[11] = THP-1 monocytic cells, n/d (no toxicity at maximum tested dose)
[12] = Time 0 days, compound concentration 2 µg/ml
[13] = Time 1 day, compound concentration 2 µg/ml
[14] = Time 3 days, compound concentration 2 µg/ml
[15] = Time 7 days, compound concentration 2 µg/ml
[16] = n/d (no toxicity at maximum tested dose)

Structure (SMILES)	T/A [1]	CC50 [2, 8] [µg/mL]	Degradation (%) 24h [3] [%]	Degradation (%) 48h [3] [%]	Degradation (%) 24h [4] [%]	Degradation (%) 48h [4] [%]	Degradation (%) 72h [4] [%]	Degradation (%) 168h [4] [%]	Degradation (%) 332h [4] [%]	Degradation (%) 24h [5] [%]	Degradation (%) 48h [5] [%]	Degradation (%) 72h [5] [%]	MBC [6, 9] [µg/mL]	MIC [6, 10] [µg/mL]	other results
CCCCCCCCNC(=O)c1cc([N+](=O)[O-])cc(C(F)(F)F)c1 [Compound 8c, N-octyl-3-nitro-5-(trifluoromethyl)-benzamide]	222	14 (≈ 40.4 µM)	5	11	0	0	0	0	0	0	0	0	0.063 (≈ 0.182 µM)	0.063 (≈ 0.182 µM)	
CCCCCCCCCCCCNC(=O)c1ccc([N+](=O)[O-])cc1 [Compound 6e, N-dodecyl-4-nitrobenzamide]			2	3	0	0	0	0	0	0	0	1	256 (≈ 765 µM)	256 (≈ 765 µM)	
CCCCCCCCCCOC(=O)c1cc([N+](=O)[O-])cc(C(F)(F)F)c1 [Compound 4d, Decyl 3-nitro-5-(trifluoromethyl)benzoate]			5	10						26	45	60	256 (≈ 682 µM)	128 (≈ 341 µM)	CC50 [2, 11]: > 512 µg/mL
CCCCCCCCCCCCNC(=O)c1ccccc1 [Compound 5e, N-dodecyl-benzamide]			0	0	0	0	0	0	0	0	0	0	> 256	> 256	
CCCCCCCCNC(=O)c1ccc([N+](=O)[O-])cc1 [Compound 6c, N-octyl-4-nitrobenzamide]	2	308 (≈ 1110 µM)	3	5	0	0	0	0	0	0	0	1	256 (≈ 920 µM)	128 (≈ 460 µM)	
CCCCCCCCCCNC(=O)c1cc([N+](=O)[O-])cc(C(F)(F)F)c1 [Compound 8d, N-decyl-3-nitro-5-(trifluoromethyl)-benzamide]	106	53 (≈ 142 µM)	2	3									0.5 (≈ 1.34 µM)	0.5 (≈ 1.34 µM)	
CCCCCCCCCCCCNC(=O)c1cc([N+](=O)[O-])cc(C(F)(F)F)c1 [Compound 8e, N-dodecyl-3-nitro-5-(trifluoromethyl)-benzamide]	226	113 (≈ 281 µM)	1	3	0	0	0	0	0	0	0	0	0.5 (≈ 1.24 µM)	0.5 (≈ 1.24 µM)	
CCCCCCCCCCOC(=O)c1cc([N+](=O)[O-])cc([N+](=O)[O-])c1 [Compound 3d, Decyl 3,5-dinitrobenzoate]			5	9						18	32	44			CC50 [2, 11]: > 512 µg/mL; CFU x10^4 [7, 12]: 9.2 CFUs per mL; CFU x10^4 [7, 13]: 12.5 CFUs per mL; CFU x10^4 [7, 14]: 12.5 CFUs per mL; CFU x10^4 [7, 15]: 8.5 CFUs per mL; MBC [6]: 4 µg/mL (≈ 11.4 µM); MIC [6]: 4 µg/mL (≈ 11.4 µM)
CCCCCCNC(=O)c1ccccc1 [Compound 5b, N-hexyl-benzamide]			1	2									64 (≈ 312 µM)	64 (≈ 312 µM)	
NNC(=O)c1ccncc1 [INH, isoniazid, reference compound]													0.05 (≈ 0.365 µM)	0.025 (≈ 0.182 µM)	CFU x10^4 ([7]; Time 0 days, concentration 0.1 µg/ml): 9.2 CFUs per mL; CFU x10^4 ([7]; Time 1 day, concentration 0.1 µg/ml): 9.91 CFUs per mL; CFU x10^4 ([7]; Time 3 days, concentration 0.1 µg/ml): 1.33 CFUs per mL; CFU x10^4 ([7]; Time 7 days, concentration 0.1 µg/ml): 0.24 CFUs per mL
CCCCCCCCNC(=O)c1ccccc1 [Compound 5c, N-octyl-benzamide]	6	188 (≈ 806 µM)	1	2	0	0	0	0	0	0	0	0	32 (≈ 137 µM)	32 (≈ 137 µM)	
CCCCNC(=O)c1ccccc1 [Compound 5a, N-butyl-benzamide]			2	3	0	0	0	0	0	0	0	0	256 (≈ 1440 µM)	256 (≈ 1440 µM)	
CCCCCCCCCCCCCCCCOC(=O)c1cc([N+](=O)[O-])cc([N+](=O)[O-])c1 [Compound 3g, Hexadecyl 3,5-dinitrobenzoate]			2	4						1	3	4			CC50 [2, 11]: > 512 µg/mL; MBC [6]: > 1020 µg/mL; MIC [6]: > 1020 µg/mL
CCCCCCCCCCCCOC(=O)c1cc([N+](=O)[O-])cc([N+](=O)[O-])c1 [Compound 3e]			4	8	0	0	1	1	2	29	50	65			CC50 [2, 16]: > 512 µg/mL; MBC [6]: 16 µg/mL (≈ 42.1 µM); MIC [6]: 8 µg/mL (≈ 21 µM)
CCCCCCNC(=O)c1cc([N+](=O)[O-])cc(C(F)(F)F)c1 [Compound 8b, N-hexyl-3-nitro-5-(trifluoromethyl)-benzamide]	46	23 (≈ 72.3 µM)	7	14									≤ 0.5	≤ 0.5	
CCCCCCCCCCCCOC(=O)c1cc([N+](=O)[O-])cc(C(F)(F)F)c1 [Compound 4e, Dodecyl 3-nitro-5-(trifluoromethyl)benzoate]			3	6	1	2	3	6	11	1	2	3	> 1020	> 1020	CC50 [2, 11]: > 512 µg/mL
CCCCCCCCOC(=O)c1cc([N+](=O)[O-])cc(C(F)(F)F)c1 [Compound 4c, Octyl 3-nitro-5-(trifluoromethyl)benzoate]			8	16	0	1	1	3	6	42	67	81			
CCCCCCCCOC(=O)c1cc([N+](=O)[O-])cc([N+](=O)[O-])c1 [Compound 3c]			10	19	0	0	1	2	3	57	81	92			MBC [6]: 8 µg/mL (≈ 24.7 µM); MIC [6]: 8 µg/mL (≈ 24.7 µM)
CCCCCCCCCCCCCCOC(=O)c1cc([N+](=O)[O-])cc([N+](=O)[O-])c1 [Compound 3f]			3	6						23	51	65			CC50 [2, 16]: > 512 µg/mL; CFU x10^4 [7, 12]: 9.2 CFUs per mL; CFU x10^4 [7, 13]: 12.16 CFUs per mL; CFU x10^4 [7, 14]: 13.66 CFUs per mL; CFU x10^4 [7, 15]: 7.25 CFUs per mL; MBC [6]: > 1020 µg/mL; MIC [6]: 16 µg/mL (≈ 39.2 µM)
